Measurements from ChEMBL document CHEMBL1201862, “PubChem BioAssay data set” (2004).
The source made the active and inactive calls.

Key:
[1] = target: Cytochrome P450 3A4 (Homo sapiens, UniProt P08684);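 further: CYP3A4 tested as one member of a cytochrome P450 panel screen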
[2] = target: Beta-adrenergic receptor kinase 1 (Homo sapiens, UniProt P25098); experiment: GRK2 inhibitors displacing RNA aptamer, dose response, biochemical, flow cytometry beads, FAM-aptamer, powder set 1 (AID 588720)
[3] = NIH-3T3 fibroblast cytotoxicity, dose response, cytotoxicity control, cell-based, fluorescence, Alamar Blue, secondary assay (AID 2327); assay type: functional;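 further: NIH-3T3 mouse fibroblasts cultured with fluconazole at 8 µg/mL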
[4] = insulin promoter down-regulators in MIN6 cells, imaging, high-content screening, mouse beta cells (AID 1628); assay type: functional
[5] = test system: Streptococcus sp. 'group A'; experiment: growth inhibition of control SK(-) GAS strain, dose response, counter-screen for streptokinase expression inhibitor project, luminescence, kanamycin, BacTiterGlo, confirmation (AID 1900); assay type: functional, organism-based
[6] = cells; assay type: functional, cell-based
[7] = cytotoxicity in MIN6 insulinoma cells, dose response, cytotoxicity control, cell-based, mouse insulinoma (AID 2122); assay type: functional;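 further: confirmatory high-throughput counterscreen run to flag cytotoxic compounds; mouse MIN-6 beta cells carrying an insulin promoter eGFP reporter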
[8] = C. albicans growth with fluconazole, confirmation, fluorescence, retest (AID 2467); assay type: functional, cell-based
[9] = cytotoxicity in HPDE-C7 cells, cell-based, fluorescence, HTS (AID 430); assay type: functional; conditions: Homo sapiens
[10] = cytotoxicity in KRAS-transformed pancreatic duct cells, primary screen, cell-based, fluorescence, HTS (AID 431); assay type: functional; conditions: Homo sapiens;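 further: cell line used: HPDE-C7K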
[11] = cells; assay type: functional, cell-based; remark: listed apart in the source
[12] = target: T1, Serine/threonine-protein phosphatase (Candida dubliniensis (strain CD36 / CBS 7987 / NCPF 3949 / NRRLY-17841) (Yeast), UniProt B9W6M3); experiment: calcineurin pathway inhibitors in yeast reporter, dose response, S. cerevisiae, CDRE-lacZ, luminescence, secondary (AID 2388); assay type: functional, cell-based;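 further: yeast reporter cells carrying a calcineurin-responsive lacZ construct stimulated with calcium chloride; luminescent beta-galactosidase reporter signal in whole cells rather than isolated phosphatase activity; potency for inhibition where a drop in reporter signal means calcineurin blockade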
T1 sequence (B9W6M3 whole entry): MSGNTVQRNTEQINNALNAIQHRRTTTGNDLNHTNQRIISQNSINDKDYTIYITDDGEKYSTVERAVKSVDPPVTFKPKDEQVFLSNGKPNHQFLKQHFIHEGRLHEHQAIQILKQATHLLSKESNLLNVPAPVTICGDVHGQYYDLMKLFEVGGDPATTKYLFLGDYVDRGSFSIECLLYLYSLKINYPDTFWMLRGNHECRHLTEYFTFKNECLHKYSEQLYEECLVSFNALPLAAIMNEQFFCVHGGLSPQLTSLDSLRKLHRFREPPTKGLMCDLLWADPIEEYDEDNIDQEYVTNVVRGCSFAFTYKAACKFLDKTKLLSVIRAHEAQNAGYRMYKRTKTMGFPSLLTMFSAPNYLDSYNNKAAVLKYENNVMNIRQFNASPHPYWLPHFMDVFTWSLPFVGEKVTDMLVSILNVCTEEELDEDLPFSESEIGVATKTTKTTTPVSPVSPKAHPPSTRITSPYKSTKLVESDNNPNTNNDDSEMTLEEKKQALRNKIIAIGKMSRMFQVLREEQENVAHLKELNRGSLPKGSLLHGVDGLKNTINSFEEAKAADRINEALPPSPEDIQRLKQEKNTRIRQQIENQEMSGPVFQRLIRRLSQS

[13] = test system: Streptococcus; experiment: Group A Streptococcus viability loss, dose response, counter-screen for streptokinase expression inhibitor project, luminescence, BacTiterGlo (AID 1915); assay type: functional, organism-based;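 further: potency for reduction of bacterial viability or growth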
[14] = target: Exodeoxyribonuclease V (Escherichia coli (strain K12), UniProt P04993+P07648+P08394); experiment: E. coli RecBCD inhibitors, dose response, counter-screen for AddAB inhibitor project, absorbance, V66 E. coli, mutant T4 phage (AID 492957); assay type: functional, cell-based, Escherichia coli str. K-12 substr. MG1655
[15] = Counterscreen for AddAB inhibitors: absorbance-based bacterial cell-based high throughput dose response assay for inhibitors of bacterial viability. [Related pubchem assays (depositor defined):AID435030, AID449728, AID449731, AID488942, AID488955, AID488956]; assay type: functional
[16] = test system: HEK293; experiment: inhibitors of LMP1-driven NF-kB reporter, dose response, cell-based, HEK293, luciferase, cherry-pick (AID 588343); assay type: functional; conditions: Homo sapiens
[17] = target: Heat shock protein HSP 90-alpha (Homo sapiens, UniProt P07900); assay type: functional, organism-based
[18] = test system: Vero; experiment: cells; assay type: functional, cell-based; conditions: Chlorocebus sabaeus
[19] = target: ATP-dependent molecular chaperone HSP82 (Candida albicans (strain WO-1) (Yeast), UniProt C4YTQ8); experiment: loss of DOC-induced GRE-beta-galactosidase reporter signal, dose response, Hsp90 inhibitor project, S. cerevisiae, luminescence (AID 2400); assay type: functional, cell-based;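 further: beta-galactosidase luminescence from glucocorticoid response element reporter as proxy for Hsp90 function; inhibitor potency where signal loss means Hsp90 inhibition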
[20] = target: T2, Carboxy-terminal domain RNA polymerase II polypeptide A small phosphatase 1 (Homo sapiens, UniProt Q9GZU7); experiment: inhibitors of CTDSP1, concentration-response testing, biochemical assay, absorbance-based, actives from ultra-high-throughput screening (AID 540297); assay type: functional
T2 sequence (Q9GZU7 whole entry): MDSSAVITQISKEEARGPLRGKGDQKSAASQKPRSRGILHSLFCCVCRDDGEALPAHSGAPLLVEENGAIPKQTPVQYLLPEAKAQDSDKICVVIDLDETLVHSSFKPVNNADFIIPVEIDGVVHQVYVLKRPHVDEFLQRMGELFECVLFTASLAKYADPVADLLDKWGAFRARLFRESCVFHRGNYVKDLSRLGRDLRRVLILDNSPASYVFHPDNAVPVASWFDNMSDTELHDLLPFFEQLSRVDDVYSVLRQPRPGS

Chain of Beta-adrenergic receptor kinase 1 (P25098 whole entry): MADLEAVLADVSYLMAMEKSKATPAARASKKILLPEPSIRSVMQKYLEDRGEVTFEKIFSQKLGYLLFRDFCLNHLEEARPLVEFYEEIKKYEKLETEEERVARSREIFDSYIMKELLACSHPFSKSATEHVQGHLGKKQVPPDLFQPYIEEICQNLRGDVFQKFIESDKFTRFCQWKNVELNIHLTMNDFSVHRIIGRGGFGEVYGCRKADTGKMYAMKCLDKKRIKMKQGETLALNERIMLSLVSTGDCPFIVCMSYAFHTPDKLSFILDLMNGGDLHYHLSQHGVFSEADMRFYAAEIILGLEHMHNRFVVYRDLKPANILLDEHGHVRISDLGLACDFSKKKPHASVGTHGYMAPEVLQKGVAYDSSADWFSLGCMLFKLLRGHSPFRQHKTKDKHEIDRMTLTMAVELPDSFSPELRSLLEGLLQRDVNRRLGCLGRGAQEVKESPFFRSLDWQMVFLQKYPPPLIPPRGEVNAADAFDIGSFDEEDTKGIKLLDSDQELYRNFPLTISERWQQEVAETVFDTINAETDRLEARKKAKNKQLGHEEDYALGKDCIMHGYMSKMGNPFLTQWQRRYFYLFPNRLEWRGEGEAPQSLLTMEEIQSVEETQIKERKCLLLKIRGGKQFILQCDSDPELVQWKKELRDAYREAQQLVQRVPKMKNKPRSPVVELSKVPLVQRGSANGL
Chain of Cytochrome P450 3A4 (P08684 whole entry): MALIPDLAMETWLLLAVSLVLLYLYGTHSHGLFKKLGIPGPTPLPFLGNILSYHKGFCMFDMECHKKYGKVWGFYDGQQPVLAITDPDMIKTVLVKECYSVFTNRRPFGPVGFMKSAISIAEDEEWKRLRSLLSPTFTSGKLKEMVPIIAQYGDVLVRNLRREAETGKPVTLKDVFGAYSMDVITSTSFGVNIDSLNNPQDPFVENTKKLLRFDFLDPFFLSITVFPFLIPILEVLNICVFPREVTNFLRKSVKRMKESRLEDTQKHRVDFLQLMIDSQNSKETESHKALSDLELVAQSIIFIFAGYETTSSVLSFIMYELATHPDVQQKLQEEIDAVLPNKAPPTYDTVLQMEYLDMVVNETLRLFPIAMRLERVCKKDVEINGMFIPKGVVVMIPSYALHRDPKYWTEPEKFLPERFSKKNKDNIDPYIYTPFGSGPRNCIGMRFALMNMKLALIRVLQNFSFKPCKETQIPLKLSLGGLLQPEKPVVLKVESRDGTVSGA
Chain of ATP-dependent molecular chaperone HSP82 (C4YTQ8 whole entry, the tested form may be a part): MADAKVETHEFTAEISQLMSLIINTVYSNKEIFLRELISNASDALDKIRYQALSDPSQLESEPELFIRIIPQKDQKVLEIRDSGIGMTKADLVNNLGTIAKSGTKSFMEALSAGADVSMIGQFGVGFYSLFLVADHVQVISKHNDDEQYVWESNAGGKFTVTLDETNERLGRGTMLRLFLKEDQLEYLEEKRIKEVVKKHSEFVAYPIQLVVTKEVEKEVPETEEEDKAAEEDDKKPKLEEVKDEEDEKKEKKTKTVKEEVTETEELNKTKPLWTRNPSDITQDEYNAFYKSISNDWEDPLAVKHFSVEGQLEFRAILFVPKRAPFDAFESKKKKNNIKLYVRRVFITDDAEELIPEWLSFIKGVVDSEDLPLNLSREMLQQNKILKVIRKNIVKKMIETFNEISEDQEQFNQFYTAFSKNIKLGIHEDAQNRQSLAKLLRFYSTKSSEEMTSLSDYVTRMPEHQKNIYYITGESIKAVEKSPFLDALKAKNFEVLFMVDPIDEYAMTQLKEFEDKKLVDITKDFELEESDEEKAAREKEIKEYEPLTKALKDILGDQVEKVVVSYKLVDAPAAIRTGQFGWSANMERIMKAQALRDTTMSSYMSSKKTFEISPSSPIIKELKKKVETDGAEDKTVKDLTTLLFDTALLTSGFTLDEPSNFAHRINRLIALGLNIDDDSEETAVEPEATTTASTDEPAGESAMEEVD
Chain of Exodeoxyribonuclease V (P04993 whole entry): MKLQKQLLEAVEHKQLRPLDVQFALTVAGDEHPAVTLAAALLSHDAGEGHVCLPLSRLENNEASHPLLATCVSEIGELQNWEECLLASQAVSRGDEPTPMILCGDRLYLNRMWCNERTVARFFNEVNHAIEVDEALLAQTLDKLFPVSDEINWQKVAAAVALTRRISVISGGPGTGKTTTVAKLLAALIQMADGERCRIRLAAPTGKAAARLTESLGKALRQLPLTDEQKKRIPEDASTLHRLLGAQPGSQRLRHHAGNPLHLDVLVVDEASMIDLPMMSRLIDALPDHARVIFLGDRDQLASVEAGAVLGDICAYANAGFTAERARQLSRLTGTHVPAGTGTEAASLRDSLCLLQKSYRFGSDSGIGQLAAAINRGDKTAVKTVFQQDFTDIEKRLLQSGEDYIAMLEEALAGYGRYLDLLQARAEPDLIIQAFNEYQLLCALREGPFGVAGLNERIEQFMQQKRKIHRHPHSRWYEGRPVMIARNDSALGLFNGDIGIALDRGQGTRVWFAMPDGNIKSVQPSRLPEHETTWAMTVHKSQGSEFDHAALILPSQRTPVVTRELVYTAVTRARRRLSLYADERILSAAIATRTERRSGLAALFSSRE
Chain of Exodeoxyribonuclease V (P07648 whole entry): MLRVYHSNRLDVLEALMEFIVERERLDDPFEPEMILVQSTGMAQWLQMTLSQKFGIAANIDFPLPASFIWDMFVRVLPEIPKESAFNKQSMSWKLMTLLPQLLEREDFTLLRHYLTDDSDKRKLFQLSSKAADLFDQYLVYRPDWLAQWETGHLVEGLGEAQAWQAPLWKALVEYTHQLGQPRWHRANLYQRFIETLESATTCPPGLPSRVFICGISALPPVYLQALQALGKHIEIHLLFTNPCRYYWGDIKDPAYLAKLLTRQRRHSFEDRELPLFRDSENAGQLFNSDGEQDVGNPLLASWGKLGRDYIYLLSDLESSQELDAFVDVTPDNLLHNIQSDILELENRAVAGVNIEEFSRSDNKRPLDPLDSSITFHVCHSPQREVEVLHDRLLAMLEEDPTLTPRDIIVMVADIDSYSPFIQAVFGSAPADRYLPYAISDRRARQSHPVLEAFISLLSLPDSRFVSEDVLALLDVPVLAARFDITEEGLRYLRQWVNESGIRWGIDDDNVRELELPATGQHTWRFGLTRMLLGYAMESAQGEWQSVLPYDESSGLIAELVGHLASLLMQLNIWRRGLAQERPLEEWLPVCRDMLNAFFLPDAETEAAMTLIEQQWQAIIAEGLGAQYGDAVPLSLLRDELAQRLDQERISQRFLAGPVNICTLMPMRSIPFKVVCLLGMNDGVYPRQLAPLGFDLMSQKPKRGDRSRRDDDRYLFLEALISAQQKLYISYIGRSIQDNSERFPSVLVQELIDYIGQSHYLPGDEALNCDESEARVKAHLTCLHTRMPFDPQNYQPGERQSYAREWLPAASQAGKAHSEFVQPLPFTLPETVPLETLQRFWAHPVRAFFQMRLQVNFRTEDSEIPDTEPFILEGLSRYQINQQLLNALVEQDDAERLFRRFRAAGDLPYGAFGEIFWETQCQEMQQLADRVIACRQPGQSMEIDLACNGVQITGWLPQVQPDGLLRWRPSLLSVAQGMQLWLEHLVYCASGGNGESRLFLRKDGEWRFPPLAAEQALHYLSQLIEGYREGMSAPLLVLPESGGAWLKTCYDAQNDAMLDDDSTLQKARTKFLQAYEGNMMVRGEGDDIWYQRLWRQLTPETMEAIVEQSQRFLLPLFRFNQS
Chain of Exodeoxyribonuclease V (P08394 whole entry): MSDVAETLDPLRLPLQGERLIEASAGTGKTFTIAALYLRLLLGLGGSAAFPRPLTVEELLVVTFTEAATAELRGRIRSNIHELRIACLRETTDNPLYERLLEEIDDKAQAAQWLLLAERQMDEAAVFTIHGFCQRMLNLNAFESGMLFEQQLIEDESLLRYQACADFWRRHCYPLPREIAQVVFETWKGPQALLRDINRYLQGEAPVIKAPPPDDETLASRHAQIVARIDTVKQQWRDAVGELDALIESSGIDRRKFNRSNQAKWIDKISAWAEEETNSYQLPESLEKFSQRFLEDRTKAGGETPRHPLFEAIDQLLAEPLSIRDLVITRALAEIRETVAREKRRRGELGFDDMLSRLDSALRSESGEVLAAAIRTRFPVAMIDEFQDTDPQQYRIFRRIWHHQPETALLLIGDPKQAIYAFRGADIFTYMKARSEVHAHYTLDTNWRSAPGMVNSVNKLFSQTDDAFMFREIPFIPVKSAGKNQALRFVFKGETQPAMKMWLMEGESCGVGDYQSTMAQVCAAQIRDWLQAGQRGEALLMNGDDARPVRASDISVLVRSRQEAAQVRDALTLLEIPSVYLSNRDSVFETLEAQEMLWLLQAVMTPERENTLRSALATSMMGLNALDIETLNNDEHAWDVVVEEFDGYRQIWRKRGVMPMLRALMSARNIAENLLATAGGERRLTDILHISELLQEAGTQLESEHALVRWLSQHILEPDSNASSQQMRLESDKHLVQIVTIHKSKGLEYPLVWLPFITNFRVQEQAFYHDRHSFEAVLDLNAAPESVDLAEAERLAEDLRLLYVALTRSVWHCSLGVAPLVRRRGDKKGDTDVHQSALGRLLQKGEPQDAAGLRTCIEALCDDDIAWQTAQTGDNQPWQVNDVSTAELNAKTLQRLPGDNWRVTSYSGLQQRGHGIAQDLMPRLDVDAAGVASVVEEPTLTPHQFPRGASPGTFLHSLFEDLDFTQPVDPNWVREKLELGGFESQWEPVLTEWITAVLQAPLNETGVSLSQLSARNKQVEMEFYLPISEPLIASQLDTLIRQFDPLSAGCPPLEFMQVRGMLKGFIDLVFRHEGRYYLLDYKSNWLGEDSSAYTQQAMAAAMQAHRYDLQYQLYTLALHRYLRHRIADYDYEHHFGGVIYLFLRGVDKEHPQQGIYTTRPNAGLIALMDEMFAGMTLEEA

With COCC(=O)N1CCC2(CC1)CN(C(c1ccccc1)c1ccccc1)C2 the AC50 [1] was “inconclusive”.

With O=C(CCS(=O)(=O)c1ccc(Br)cc1)NCCc1ccc(Cl)cc1 the EC50 [2] was 7.06 µM (active).

In the case of Oc1c(C(Nc2nc3ccccc3s2)c2ccco2)ccc2cccnc12 (stereo unspecified), the EC50 [3] was 12.9 µM (active), the IC50 [4] was 1.21 µM (active) and the EC50 [5] was 1.76 µM (active). The EC50 [6] was 9.09 µM (active), the IC50 [7] was 0.896 µM (active) and the EC50 [8] was 0.854 µM (active). The EC50 [9] was 8.6 µM (active), the EC50 [10] was 6.19 µM (active) and the EC50 [11] was > 350 µM (not active). For the same compound, the EC50 [12] was > 180 µM (inactive), the EC50 [13] was 5.98 µM (active) and the IC50 [14] was > 119 µM (inactive). For the same compound, the IC50 [15] was > 119 µM (inactive), the AC50 [16] was 6.93 µM (active) and the AC50 [17] was 24.1 µM (active). The IC50 [18] was > 25 µM (active) and the EC50 [19] was 33.4 µM (active).

With O=C(CCS(=O)(=O)c1ccc(Br)cc1)NCc1cccs1 the EC50 [2] was 1.79 µM (active) and the IC50 [20] was 48 µM (active).
